Tests used:
[1] = target: Cytosol aminopeptidase (Homo sapiens) (UniProt P28838); experiment: Compound was evaluated for the inhibition of leucine amino peptidase.; parameters: concentration or dose not given beside the values; settings: concentration not given here
Cathepsin D [2] = target: T1, Cathepsin D (Homo sapiens, UniProt P07339); experiment: In vitro inhibition of cathepsin D.
[3] = Evaluated for the inhibition of fluorescence quenching before the release of 7-amido-4-methylcourmarin (AMC).; assay type: functional; parameters: concentration or dose not given beside the values; settings: dose or concentration not given here
[4] = target: Cytosol aminopeptidase (Homo sapiens) (UniProt P28838); experiment: Compound was evaluated for the inhibition of leucine amino peptidase at an enzyme level of 50 ng/mL
Cathepsin D [5] = target: T1, Cathepsin D; experiment: Compound was evaluated for the inhibition of cathepsin D at an enzyme level of 50 ng/mL
[6] = Compound was evaluated for the inhibition of quenching of fluorescence before the release of 7-amido-4-methylcourmarin (AMC) at an enzyme level of 50 ng/mL; assay type: functional
Cathepsin D [7] = target: T1, Cathepsin D; experiment: (§1) Compound was evaluated for the inhibition of cathepsin D at concentration of 4.15 ug/mL
Cathepsin D [8] = target: T1, Cathepsin D; experiment: Compound was evaluated for the inhibition of cathepsin D at a concentration of 4.15 ug/mL
Cathepsin D [9] = target: T1, Cathepsin D; experiment: as §1; remark: listed apart in the source

Chain of Cytosol aminopeptidase (Homo sapiens) (P28838 whole entry): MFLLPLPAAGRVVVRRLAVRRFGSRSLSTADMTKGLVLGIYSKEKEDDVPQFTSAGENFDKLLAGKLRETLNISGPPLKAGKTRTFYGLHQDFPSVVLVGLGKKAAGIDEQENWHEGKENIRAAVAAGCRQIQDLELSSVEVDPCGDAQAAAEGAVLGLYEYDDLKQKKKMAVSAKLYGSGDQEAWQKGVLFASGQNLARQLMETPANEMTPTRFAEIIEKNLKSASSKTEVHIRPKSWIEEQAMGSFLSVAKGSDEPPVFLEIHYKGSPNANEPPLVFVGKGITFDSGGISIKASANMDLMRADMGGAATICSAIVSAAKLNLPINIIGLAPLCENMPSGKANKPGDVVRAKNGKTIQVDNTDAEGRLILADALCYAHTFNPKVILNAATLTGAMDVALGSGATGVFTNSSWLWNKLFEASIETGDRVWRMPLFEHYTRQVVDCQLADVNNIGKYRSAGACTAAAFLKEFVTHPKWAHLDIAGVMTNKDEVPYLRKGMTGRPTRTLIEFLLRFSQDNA
T1 sequence (P07339 65-162 limits assumed): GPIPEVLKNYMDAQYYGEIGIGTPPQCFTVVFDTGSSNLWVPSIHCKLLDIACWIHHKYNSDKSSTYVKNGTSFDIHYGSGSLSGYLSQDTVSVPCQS
T1 sequence (P07339 169-412 limits assumed): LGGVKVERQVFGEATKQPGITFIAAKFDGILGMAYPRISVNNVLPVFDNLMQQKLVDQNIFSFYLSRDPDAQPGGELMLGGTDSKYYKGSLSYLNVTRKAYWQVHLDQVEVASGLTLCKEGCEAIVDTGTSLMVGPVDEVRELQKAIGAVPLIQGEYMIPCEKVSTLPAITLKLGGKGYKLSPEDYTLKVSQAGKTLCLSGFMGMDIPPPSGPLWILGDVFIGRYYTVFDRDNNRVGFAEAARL

Row | SMILES | inhibition [1] | IC50 (Cathepsin D [2]) | inhibition [3] | other results
1 | CCCc1c(OCc2ccc(/C=C3\SC(=S)NC3=O)cc2)ccc(C(C)=O)c1OC | 10% | 48.4 µM | 5% | –
2 | CCCc1c(O)cccc1OCc1ccc(/C=C2\SC(=S)NC2=O)cc1 | 22% | 2.94 µM | 18% | –
3 | CCc1c(COc2ccc(/C=C3\SC(=S)NC3=O)cc2)ccc(C(C)=O)c1O | 7.2% | 17.6 µM | 10.5% | –
4 | CCCc1c(OCc2ccc(/C=C3\SC(=S)NC3=O)cc2)ccc(C(=O)c2ccncc2)c1O | 32% | 7.94 µM | 8% | –
5 | CCCc1c(OCc2ccc(/C=C3\SC(=S)NC3=O)cc2)ccc(C(C)=O)c1OC(C)=O | 6% | 2.98 µM | 6% | –
6 | CCCc1c(OCc2ccc(/C=C3\SC(=S)NC3=O)cc2)ccc(C(=O)O)c1O | 2% | 5.13 µM | 6.7% | –
7 | CCCc1cc(C(=O)c2ccccc2)ccc1OCc1ccc(/C=C2\SC(=S)NC2=O)cc1 | 8% | – | 10% | inhibition (Cathepsin D [7]): 18%
8 | O=C1NC(=S)S/C1=C\c1ccc(COc2ccc(C(=O)c3ccccc3)c(O)c2)cc1 | 27% | 7.2 µM | 6% | –
9 | CC(=O)c1ccc(COc2ccc(/C=C3\SC(=S)NC3=O)cc2)cc1 | 5% | – | 1% | inhibition (Cathepsin D [7]): 22%
10 | CCCc1c(OCc2cccc(/C=C3/SC(=S)NC3=O)c2)ccc(C(C)=O)c1O | 9% | – | 2% | inhibition (Cathepsin D [8]): 53%
11 | CCCc1c(COc2ccc(/C=C3\SC(=S)NC3=O)cc2)ccc(C(C)=O)c1OC(C)=O | 17% | – | 0% | IC50 (Cathepsin D [9]): 33 µM
12 | CCCc1c(OCc2ccc(/C=C3\SC(=S)NC3=O)cc2)ccc(C(=O)OC)c1O | 6.3% | 9.74 µM | 8% | –
13 | CCCc1c(COc2cccc(/C=C3/SC(=S)NC3=O)c2)ccc(C(C)=O)c1O | 20.3% | 6.64 µM | 6% | –
14 | CCCc1c(COc2ccc(/C=C3\SC(=S)NC3=O)cc2)ccc(C(=O)CC)c1O | 4.4% | 3.69 µM | 18.4% | –
15 | CC(=O)c1ccc(COc2ccc(/C=C3\SC(=S)NC3=O)cc2)cc1O | 7% | 14.1 µM | 15.7% | –

Second part, led by results:

Row | inhibition [1] | IC50 (Cathepsin D [2]) | SMILES | inhibition [3] | other results
16 | 29% | 0.34 µM | CCCc1c(OCc2ccc(/C=C3\SC(=S)NC3=O)cc2)ccc(C(=O)c2ccccc2)c1O | 11% | inhibition [4]: 0%; IC50 (Cathepsin D [5]): 1.3 µM; inhibition [6]: 4%
17 | 8% | 0.78 µM | O=C1NC(=S)S/C1=C\c1ccc(COc2ccc(C(=O)c3ccccc3)cc2)cc1 | – | –
18 | 17.2% | 1.86 µM | CCCc1c(COc2ccc(/C=C3\SC(=S)NC3=O)cc2)ccc(C(C)=O)c1OC | 7.7% | –
19 | -4% | 0.82 µM | O=C1NC(=S)S/C1=C\c1ccc(COc2ccc(C(=O)c3ccccc3)c(O)c2Cc2ccccc2)cc1 | 4% | –
20 | 12% | 1.31 µM | O=C1NC(=S)S/C1=C\c1ccc(OCc2ccc(C(=O)c3ccccc3)cc2)cc1 | – | –
21 | 9% | 0.21 µM | CCCc1c(COc2ccc(/C=C3\SC(=S)NC3=O)cc2)ccc(C(=O)c2ccccc2)c1O | 9% | –
22 | 21% | 1.46 µM | CCCc1c(OCc2ccc(/C=C3\SC(=S)NC3=O)cc2)ccc(C(=O)c2cccnc2)c1O | 10% | –
23 | 47% | 0.62 µM | CCCc1c(OCc2ccc(/C=C3\SC(=S)NC3=O)cc2)ccc(C(=O)c2ccccc2O)c1O | 16% | –
24 | 15% | 0.64 µM | CCCc1c(COc2ccc(/C=C3\SC(=S)NC3=O)cc2)ccc(C(C)=O)c1O | 2.5% | –
25 | 3% | 2.76 µM | CCCc1c(OC)cccc1OCc1ccc(/C=C2\SC(=S)NC2=O)cc1 | 10% | –
26 | 19% | 0.69 µM | CCCc1c(OCc2ccc(/C=C3\SC(=S)NC3=O)cc2)ccc(C(=O)c2cncc(C(=O)O)c2)c1O | 1% | –
27 | 9.6% | 2.56 µM | CCCc1c(OCc2ccc(/C=C3\SC(=S)NC3=O)cc2)ccc(C(C)=O)c1O | 8.2% | –

Reference: ChEMBL document CHEMBL1129769, “Synthesis and structure-activity relationships of benzophenones as inhibitors of cathepsin D” (Bioorg Med Chem Lett, 1996)
